From PubChem BioAssay (NCI)
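A five-concentration, 48-hour dose response in 96-well plates underlies each endpoint, interpolated linearly between surrounding concentrations. The concentration for 50% growth inhibition is given as GI50. TGI: total growth inhibition.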

Columns and labels:
Assay in all cases: growth of human tumour cells (NCI), 48 h
SF-268 CNS = test system: SF-268 CNS
SF-539 CNS = test system: SF-539 CNS
MOLT-4 leukemia = test system: MOLT-4 leukemia
MDA-MB-435 = test system: MDA-MB-435
HT29 colon = test system: HT29 colon
TK-10 renal = test system: TK-10 renal
CCRF-CEM leukemia = test system: CCRF-CEM leukemia
786-0 renal = test system: 786-0 renal
HOP-62 NSCLC = test system: HOP-62 NSCLC
HCC-2998 colon = test system: HCC-2998 colon
BT-549 breast = test system: BT-549 breast
K-562 leukemia = test system: K-562 leukemia
SF-295 CNS = test system: SF-295 CNS
M14 melanoma = test system: M14 melanoma
LOX IMVI melanoma = test system: LOX IMVI melanoma
SNB-19 CNS = test system: SNB-19 CNS
OVCAR-5 ovarian = test system: OVCAR-5 ovarian
NCI-H460 lung = test system: NCI-H460 lung
DU-145 prostate = test system: DU-145 prostate
OVCAR-8 ovarian = test system: OVCAR-8 ovarian
SK-MEL-2 melanoma = test system: SK-MEL-2 melanoma
HL-60(TB) leukemia = test system: HL-60(TB) leukemia
KM12 colon = test system: KM12 colon
UACC-257 melanoma = test system: UACC-257 melanoma
HCT-15 colon = test system: HCT-15 colon
T-47D breast = test system: T-47D breast
PC-3 prostate = test system: PC-3 prostate
OVCAR-3 ovarian = test system: OVCAR-3 ovarian
SK-OV-3 ovarian = test system: SK-OV-3 ovarian

## COC(=O)C[C@](O)(CCCC(C)(C)O)C(=O)O[C@H]1C(OC)=C[C@@]23CCCN2CCc2cc4c(cc2[C@@H]13)OCO4
SF-268 CNS
  GI50: 2900 nM
  TGI: 19500 nM
SF-539 CNS
  GI50: 673 nM
  TGI: 1780 nM
MOLT-4 leukemia
  GI50: 255 nM
  TGI: 2290 nM
MDA-MB-435
  GI50: 1250 nM
  TGI: 6780 nM
HT29 colon
  GI50: 953 nM
  TGI: 6450 nM
TK-10 renal
  GI50: 3030 nM
  TGI: 35700 nM
CCRF-CEM leukemia
  GI50: 856 nM
  TGI: 3020 nM
786-0 renal
  GI50: 1450 nM
  TGI: 9560 nM
HOP-62 NSCLC
  GI50: 1500 nM
  TGI: 16200 nM
HCC-2998 colon
  GI50: 545 nM
  TGI: 1590 nM
BT-549 breast
  GI50: 823 nM
  TGI: 2380 nM
K-562 leukemia
  GI50: 972 nM
  TGI: > 38300 nM
SF-295 CNS
  GI50: 1340 nM
  TGI: 11800 nM
M14 melanoma
  GI50: 744 nM
  TGI: 1880 nM
LOX IMVI melanoma
  GI50: 481 nM
  TGI: 1560 nM
SNB-19 CNS
  GI50: 757 nM
  TGI: 3060 nM
OVCAR-5 ovarian
  GI50: 1550 nM
  TGI: 11100 nM
NCI-H460 lung
  GI50: 210 nM
  TGI: 2620 nM
DU-145 prostate
  GI50: 1120 nM
  TGI: 13400 nM
OVCAR-8 ovarian
  GI50: 1420 nM
  TGI: 11900 nM
SK-MEL-2 melanoma
  GI50: 3230 nM
  TGI: 12800 nM
HL-60(TB) leukemia
  GI50: 456 nM
  TGI: 1740 nM
KM12 colon
  GI50: 1280 nM
  TGI: 17500 nM
UACC-257 melanoma
  GI50: 1220 nM
  TGI: 8480 nM
HCT-15 colon
  GI50: 4650 nM
  TGI: 21700 nM
T-47D breast
  GI50: 1200 nM
  TGI: 18500 nM
PC-3 prostate
  GI50: 1140 nM
  TGI: 9360 nM
OVCAR-3 ovarian
  GI50: 1010 nM
  TGI: 4140 nM
SK-OV-3 ovarian
  GI50: 1350 nM
  TGI: 26400 nM
